Tests used:
[1] = tested on: anus-closing functions; assay: Rat anus-closing functions (Anal LPP) measured by high speed infusion of saline into the rectum; assay type: in vivo; settings: 5 minutes after administration, mean ± SEM
Source text: Thirty six female SD rats were used. After overnight fasting, rats were intraperitoneally administered with urethane for anesthesia, and isoflurane inhalation was further added during surgery. The abdomen was incised to expose the rectum, and a small incision of the rectum was made. A polyethylene catheter (SP61, Natsume) was inserted into the rectum through the rectum incision, and the tip of the catheter was positioned around 5 mm from the anal orifice. The other end of the catheter was connected with a pressure transducer and an infusion pump via three-way stopcocks, and the change in pressure in the rectum was measured using the pressure transducer, an electric signal amplifier, and an analog-to-digital converter. For administrating drugs, a polyethylene catheter (SP45, Natsume) was inserted into the femoral vein after exposing the vein by small incision.
After recovery period from surgery, while saline was infused at a speed of 0.1 mL/sec into the rectum using an infusion pump, change in the measured pressure—was observed. The infusion was stopped when the leakage of the saline from the anal orifice was observed. In the procedure, sudden decrease in the pressure was observed during the infusion with the leakage of saline from the anal orifice. The peak value of the pressure recorded in the rectum during the course of the procedures was defined as “an Anal LPP” in this Example. […] The Anal LPP was again measured in the same way 5 minutes after drug administration. The difference in Anal LPP from the Pre value (increased amount of Anal LPP) was calculated. Regarding change in Anal LPP before and after drug administration, the differences between the mean values of the drug-treated and vehicle-treated groups were analyzed by the one-tailed Williams' test or Student's t-test.

[2] = tested on: urethral resistance increasing effect of Compound A′; assay: Influence of antagonists (SB 242084, methiothepin) on urethral resistance increasing effect of Compound A′ in rats; assay type: in vivo, rat; settings: mean ± SEM; for LPP Post: 30 minutes after Compound A′; for LPP Increase: Post minus Pre; for LPP Pre: before administration
Description: Ninety female rats of SD strain were used. […] Isoflurane inhalation was added during the surgery, if necessary. In the experiment with intrathecal administration, the dura mater was exposed by laminectomy and then partially opened by incision, through which a catheter (PE-10) filled with saline was then implanted at the level of the L6-S1 site, followed by the closing of the incision. After opening of the abdomen, a catheter (PE-90) was inserted into the bladder. In order to secure reduced urethral resistance, unilateral nerve to iliococcygeus and pubococcygeus muscles was transected. For intraduodenal administration, another catheter (PE-50) was inserted into the duodenum in advance. The abdominal muscle and skin were each closed with sutures. Two (right and left) sites of abdominal skin near the diaphragm were cut to expose abdominal muscle. The bladder was emptied through the catheter, followed by the injection of 0.2 to 0.3 mL of Evans blue solution. Change in intravesical pressure was recorded using the bladder catheter via a pressure transducer, an electric signal amplifier, and an analog-to-digital converter. While change in intravesical pressure was recorded, the presence or absence of fluid leakage from the urethral orifice was observed under the electrical stimulation of the exposed abdominal muscle using an electrical stimulator and an isolator. […] The peak of the intravesical pressure during the stimulation of the abdominal muscle was measured, and the lowest pressure at which the fluid leakage was observed among the trials was defined as LPP for the electrical abdominal muscle stimulation method. In order to examine whether the urethral resistance increasing effect of Compound A′ is based on its agonistic potency on 5-HT2C receptors, SB 242084, methiothepin, or a vehicle was intravenously administered, and Compound A′ or a vehicle was intraduodenally administered 5 minutes later. SB 242084 was dissolved in a mixed solution of N,N-dimethylacetamide and polyethylene glycol 400 (1:1) and administered at 0.03 mg/0.5 mL/kg, 0.1 mg/0.5 mL/kg and 0.3 mg/0.5 mL/kg. Methiothepin was dissolved in saline and administered at 0.03 mg/0.5 mL/kg. 0.1 mg/0.5 mL/kg and 0.3 mg/0.5 mL/kg. Compound A′ was suspended in 0.5% MC and administered at 3 mg/mL/kg. LPP was measured again 30 minutes after Compound A′ administration. In order to examine where Compound A′ works in the body to increase urethral resistance, the blocking of the effect of Compound A′ was confirmed by blocking the functions of Compound A′ by giving methiothepin at a particular site in the body. Particularly, in the experiment with intrathecal administration, methiothepin or a vehicle was intrathecally administered, and Compound A′ or a vehicle was intraduodenally administered 5 minutes later. Methiothepin was dissolved in saline and 20 μL of the obtained solution was administered. Compound A′ was suspended in 0.5% MC and administered at 3 mg/mL/kg. LPP was measured again 30 minutes after Compound A′ administration.
Regarding change in LPP before and after drug administration, the differences between the mean values of the Compound A′-treated and vehicle-treated groups were analyzed by the Student's t test or the Welch's test. In order to analyze the influence of the antagonists on the effect of Compound A′, the differences between the mean values of the SB 242084- or methiothepin- and Compound A′-administered group and the vehicle- and Compound A′-administered group were analyzed by the one-tailed Williams' test.

[3] = Body weight of obese rats (DIO-F344) under continuous subcutaneous administration and effective plasma concentration; assay type: in vivo, rat; settings: for Change in body weight (% change): mean ± SEM
Description: Forty male DIO-F344 rats bred with high fat diet (42 kcal % fat) were used. On the day before surgery, the rats were grouped on the basis of their body weight. Compound A′ and Compound B′ were each dissolved in saline. Osmotic pumps filled with the Compound A′ or Compound B′ solution were subcutaneously implanted in the rats under isoflurane anesthesia. The body weight just after surgery was used as a Pre value, and the body weight was measured every day until 14 days after surgery. Regarding the averages in the body weight on Day 14, the difference in the mean averages of the drug-treated group and the vehicle-treated group was analyzed by the one-tailed Williams' test.
The average Day 14 plasma concentration from the values of each rat measured in the morning and afternoon was used as a plasma concentration for the animal. The rate of change in body weight was calculated from the values measured just after and 14 days after osmotic pump implantation. The rate (average rate) of change of the vehicle group was subtracted from that of each drug-administered rat to plot the plasma concentration and the change in body weight. The plasma concentration at which the drug lowered the body weight by 3.8% was calculated by linear regression analysis.

[4] = SB 242084 0 mg/kg i.v. (vehicle) + Compound A′ 3 mg/kg i.d.
[5] = methiothepin 0 μg intrathecal (vehicle) + Compound A′ 3 mg/kg i.d.
[6] = methiothepin 0 mg/kg i.v. (vehicle) + Compound A′ 3 mg/kg i.d.

CC(C)N(C)c1cnc2c(n1)OCCNC2.Cl [Compound A′, N-methyl-N-(1-methylethyl)-6,7,8,9-tetrahydropyrazino[2,3-f][1,4]oxazeine-3-amine]
Anal LPP Increase ([1]; 0.3 mg/kg i.v.): 6.2 ± 3.1 cmH2O | Anal LPP Increase ([1]; 1 mg/kg i.v.): 30.2 ± 9.6 cmH2O | LPP Post [2, 4]: 72.4 ± 9.5 cmH2O | LPP Increase [2, 4]: 26.4 ± 5.9 cmH2O | LPP Pre [2, 4]: 46.0 ± 5.1 cmH2O | LPP Post [2, 5]: 72.1 ± 5.7 cmH2O | LPP Increase [2, 5]: 31.8 ± 6.2 cmH2O | LPP Pre [2, 5]: 40.3 ± 5.6 cmH2O | LPP Post [2, 6]: 61.0 ± 8.3 cmH2O | LPP Increase [2, 6]: 15.1 ± 4.0 cmH2O | LPP Pre [2, 6]: 45.9 ± 4.4 cmH2O | Change in body weight (% change) ([3]; 1.35 mg/animal/day s.c. osmotic pump, day 3): −1.5 ± 0.5 % change | Change in body weight (% change) ([3]; 1.35 mg/animal/day s.c. osmotic pump, day 7): −2.3 ± 0.8 % change | Change in body weight (% change) ([3]; 1.35 mg/animal/day s.c. osmotic pump, day 10): −4.5 ± 0.8 % change | Change in body weight (% change) ([3]; 1.35 mg/animal/day s.c. osmotic pump, day 14): −4.7 ± 0.8 % change | Change in body weight (% change) ([3]; 4.5 mg/animal/day s.c. osmotic pump, day 3): −0.6 ± 0.2 % change | Change in body weight (% change) ([3]; 4.5 mg/animal/day s.c. osmotic pump, day 7): −2.4 ± 0.4 % change | Change in body weight (% change) ([3]; 4.5 mg/animal/day s.c. osmotic pump, day 10): −3.9 ± 0.4 % change | Change in body weight (% change) ([3]; 4.5 mg/animal/day s.c. osmotic pump, day 14): −4.6 ± 0.6 % change | Change in body weight (% change) ([3]; 13.5 mg/animal/day s.c. osmotic pump, day 3): −2.7 ± 0.2 % change | Change in body weight (% change) ([3]; 13.5 mg/animal/day s.c. osmotic pump, day 7): −4.8 ± 0.3 % change | Change in body weight (% change) ([3]; 13.5 mg/animal/day s.c. osmotic pump, day 10): −6.9 ± 0.5 % change | Change in body weight (% change) ([3]; 13.5 mg/animal/day s.c. osmotic pump, day 14): −7.8 ± 0.5 % change | plasma concentration at which the drug lowered the body weight by 3.8% ([3]; DIO-F344 rats, day 14, vehicle-subtracted, linear regression analysis): 670 ng/mL
